Where “and” joins values, the source holds several entries; their conditions need not be identical. Equal entries are not always repeated.
What was measured:
[1] = system: MDA-MB-231 cells; assay: 5 day MTT cell growth assay, MDA-MB-231; type: cell-based, human; settings: breast cancer cell lines with high levels of Bcl-XL, FIG. 12
Procedure: For example, the ability of gossypol compounds to inhibit MDA-MB-231 cell growth was tested in a 5 day MTT assay.
Cells were seeded in 24 or 96-well-plates and gossypol compounds were prepared at 2-10 fold dilutions in suitable medium. Inhibition of cell viability was determined by treating the cells with the gossypol compounds for 24 hrs. […] Inhibition of cell growth was determined by treating cells with gossypol compounds for 3-6 days. […] In some embodiments, MTT assays are used to determine cell inhibition.
Absorbance at 540 nm is used to measure the amount of formazan product.

[2] = system: MCF-7 breast cancer cell line; assay: Growth inhibition with TAXOL in fixed ratio, MCF-7; type: cell-based, human; settings: combinations in a fixed ratio to TAXOL
[3] = system: UM-SCC-1; assay: 6-day MTT cell growth, UM-SCC-1; type: cell-based, human; settings: read-out: IC50, inhibition of cell growth
Procedure: (§1) UM-SCC and human fibroblast cell lines were continuously exposed to varying concentrations of (−)-gossypol in 6-day MTT cell survival assays. Control wells contained media (DMEM) with vehicle alone. For each data point n=5.
(§2) Ten squamous cell carcinoma cell lines established at the University of Michigan (UM-SCC) and three human fibroblast lines were grown in Dulbecco's modified Eagle's medium (DMEM) supplemented with 10% fetal bovine serum. UM-SCC cell lines originated from the larynx (n=2; UM-SCC-12, -23), oral cavity/oropharynx (n=5; UM-SCC-1, -6, -14A, -74B, -81B), hypopharynx (n=1; UM-SCC-22A) and metastases from laryngeal cancers (n=2; UM-SCC-17B, -25). Human fibroblast cell lines originated from surgical specimens (fibroblast cell lines 2 and 3) and neonatal foreskin samples (fibroblast cell line 1).
(§3) Logarithmically growing cell lines were cultured, washed, counted, and plated at 5,000-15,000 cells per well in duplicate wells of 96-well plates and incubated in DMEM overnight. […] The MTT assay measures cell survival based on mitochondrial conversion of MTT from a soluble tetrazolium salt into an insoluble colored formazan precipitate, which is dissolved in dimethyl sulfoxide and quantitated by spectrophotometry. […] Percent absorbance relative to control was plotted as a linear function of drug concentration.

[4] = system: UM-SCC-12; assay: 6-day MTT cell growth, UM-SCC-12; type: cell-based, human; settings: read-out: IC50, inhibition of cell growth
Procedure: as §1, §2, §3

[5] = system: UM-SCC-25; assay: 6-day MTT cell growth, UM-SCC-25; type: cell-based, human; settings: read-out: IC50, inhibition of cell growth
Procedure: as §1, §2, §3

[6] = system: Fib-2 (fibroblast cell line 2); assay: 6-day MTT cell growth, Fib-2; type: cell-based, human; settings: read-out: IC50, inhibition of cell growth
Procedure: as §1, §2, §3

[7] = system: Fib-3 (fibroblast cell line 3); assay: 6-day MTT cell growth, Fib-3; type: cell-based, human; settings: read-out: IC50, inhibition of cell growth
Procedure: as §1, §2, §3

[8] = system: fibroblasts; assay: 6-day MTT cell survival, mean over fibroblasts; type: cell-based, human
[9] = system: UM-SCC-6; assay: Trypan blue exclusion cell death, UM-SCC-6; type: cell-based, human; settings: 10 μM, 48 hour
Procedure: (§4) Cells were seeded in 24 or 96-well-plates and gossypol compounds were prepared at 2-10 fold dilutions in suitable medium. […] Cell viability was then determined by the trypan-blue assays. Inhibition of cell growth was determined by treating cells with gossypol compounds for 3-6 days. Cell inhibition was determined using XTT. In some embodiments, MTT assays are used to determine cell inhibition.

[10] = system: UM-SCC-12; assay: Trypan blue exclusion cell death, UM-SCC-12; type: cell-based, human; settings: 10 μM, 48 hour
Procedure: as §4

[11] = system: UM-SCC-14A; assay: Trypan blue exclusion cell death, UM-SCC-14A; type: cell-based, human; settings: 10 μM, 48 hour
Procedure: as §4

[12] = system: UM-SCC-6; assay: Flow cytometric TUNEL apoptosis assay, UM-SCC-6; type: cell-based, human; settings: 10 μM, 48-hour
Procedure: Briefly, FIGS. 24A-24C show apoptosis after (−)-gossypol as measured by a fluorescent flow cytometric TUNEL assay. Open peaks represent BrdU labeling of untreated cells. Shaded peaks indicate BrdU labeling of cell populations following 48-hour treatment with 10 μM (−)-gossypol; FIG. 24A, UM-SCC-cell lines with wild type p53; FIG. 24B, UM-SCC-cell lines with mutant p53; and FIG. 24C normal fibroblast cells.
Apoptosis of UM-SCC cell lines following (−)-gossypol treatment was quantitatively detected by enzymatic labeling of DNA strand breaks using terminal deoxynucleotidyltransferase (TdT) and Alexa Fluor-BrdUTP, known as the TdT-UTP nick end-labeling (TUNEL) assay by flow cytometry. Cells were exposed to (−)-gossypol for 48 hours, harvested, fixed and TUNEL stained according to the manufacturer's protocol (Molecular Probes Inc., Eugene, Oreg.). Ten thousand cells were analyzed per sample using excitation of Alexa Fluor at 488 nm. Apoptotic index (AI) was defined as percent of apoptotic cells in the treatment population minus that in the vehicle control population.

[13] = system: PC-3 prostate cancer cells; assay: MTT-based 5-day cell proliferation, PC-3; set-up: species or system human
Excerpt: The present invention is not limited to any mechanism. Indeed, a mechanistic understanding of the invention is unnecessary to practice (make and use) the present compositions and methods.

## Cc1cc2c(C(C)C)c(O)c(O)c(C=O)c2c(O)c1-c1c(C)cc2c(C(C)C)c(O)c(O)c(C=O)c2c1O [(−)-gossypol]
[1]
  potency in inhibition of cell growth relative to (+)-gossypol, first statement: 2 times
  potency in inhibition of cell growth relative to (+)-gossypol, second statement: 5-10 times
[2]
  IC50: 8.71 µM
[3]
  IC50: 2 µM and 1.5 µM
[4]
  IC50: 4 µM
[5]
  IC50: 8 µM
[6]
  IC50: 20 µM
[7]
  IC50: 18 µM
[8]
  IC50: 20.3 ± 9.2 µM
[9]
  surviving (trypan blue excluding) fraction relative to untreated controls: 9%
[10]
  surviving (trypan blue excluding) fraction relative to untreated controls: 14%
[11]
  surviving (trypan blue excluding) fraction relative to untreated controls: 16%
[12]
  apoptotic index (AI): 80.3%
[13]
  potency in inhibiting cancer cell growth relative to (+)-gossypol: 5-10 times
  potency in inhibiting cancer cell growth relative to racemic gossypol: 2 times

Reference: patent publication US8163805B2, “Small molecule antagonists of Bcl-2 family proteins” (The Regents of the University of Michigan, priority 2001, dated 2012)
